The record followed here is ChEMBL document CHEMBL3507680, “University of Dundee, Gates Library screen for HepG2 cell viability”.

Each structure is given as a SMILES string.

A short description of the data set: Human HepG2 cell viability assay in 384 well format. Type of data set: toxicity, cell-based. On the set-up: dose 125 nL, time 70.5 hour; cytotoxicity at 70.5 h: concentration not given beside the values. The settings on record: HepG2 cells, read-out: Inhibition.
Regarding `CCn1ccc(-c2cc(C(=O)O)n3nc(C(F)(F)F)c(Br)c3n2)n1`, the cytotoxicity at 70.5 h is -3.3%. The same measure for `CN(Cc1cnn(C)c1)C(=O)c1ccnc(OC2CCC2)c1`: 15.8%. As to `Cc1nc(NC(=O)CCc2c(C)nc3cc(O)nn3c2C)sc1C`, the cytotoxicity at 70.5 h was -16.5%. Consider `CC(C)(C)c1nc(NS(=O)(=O)c2ccc(F)cc2)no1`, for which the cytotoxicity at 70.5 h was -17.2%.

For the compound `CC(C(=O)N(C)Cc1ccc(Br)o1)n1cccn1` (configuration not stated), the cytotoxicity at 70.5 h was -4.49%. In the case of `CCc1nc(C2CCCN(C(=O)c3ccc4c(c3)nnn4C)C2)no1` (configuration not stated), the cytotoxicity at 70.5 h was -7.83%. Regarding `CC(C)(C)c1n[nH]c(C2CN(C(=O)c3cc(C4CC4)[nH]n3)CCO2)n1` (configuration not stated), the cytotoxicity at 70.5 h is -1.31%. For `CS(=O)(=O)N1CCCC(c2nc(-c3ccccc3)c[nH]2)C1` (configuration not stated), the cytotoxicity at 70.5 h was -7.34%. For `COC[C@@H]1CC[C@H]2[C@H](CCN2S(=O)(=O)Cc2ccccc2)O1`, the cytotoxicity at 70.5 h is -1.62%.

Regarding `O=C(c1cc(=O)n(-c2ccccc2)[nH]1)N1CCOC(C(F)(F)F)C1` (configuration not stated), the cytotoxicity at 70.5 h stood at 5.57%. On to `Cc1cnn(CC2CN(CC(=O)NCc3ccc(C)s3)CCO2)c1` (configuration not stated), for which the cytotoxicity at 70.5 h is -13.6%. Consider `CN(CCC#N)C(=O)CN1CCCC1c1ccsc1` (configuration not stated), for which the cytotoxicity at 70.5 h amounted to 22.4%.

Consider `Cc1cc(C(=O)NCc2c(C)nn(C)c2C)nc(N2CCOCC2)n1`, for which the cytotoxicity at 70.5 h is -1.14%. On to `O=C(c1ccnnc1)N1C[C@H]2CCC[C@@]2(COCC2CCOCC2)C1`, for which the cytotoxicity at 70.5 h was -13%. In the case of `Cc1ccc2c(n1)N(Cc1csc(C)n1)CCN(C1CCOC1)C2` (configuration not stated) it was -5.88%; in that of `CCC1(c2ccc(NS(=O)(=O)c3ccc(Cl)s3)cc2)CCC(=O)NC1=O` (configuration not stated), -11.2%. Take `CN1CCCN(c2nccc(-c3cc(C(=O)O)ccn3)n2)CC1`: the cytotoxicity at 70.5 h was determined as 24.6%. For the compound `COc1cccc(C(=O)Nc2cc(CC(C)C)nn2C)c1`, the cytotoxicity at 70.5 h was 3.59%. Turning to `CCc1noc(CN(C)CCC(=O)Nc2ccccc2C#N)n1`, the cytotoxicity at 70.5 h was -1.02%.

Take `CC(c1ccco1)N(C)C(=O)NCCOc1ccc(C#N)cc1` (configuration not stated): the cytotoxicity at 70.5 h was -8.15%. In the case of `O=S1(=O)CCCN(Cc2ccccc2OCC(F)(F)F)CC1` it was -8.02%; in that of `O=C(C1CCCCC1)N1C[C@@H]2CCNC[C@@H]21`, -4.1%.

In the case of `CCOCC1CN(C(=O)c2ccncn2)Cc2cnn(CC)c21` (configuration not stated), the cytotoxicity at 70.5 h was -11.7%. Regarding `CC(NC(=O)CCCc1nc(C(C)(C)C)no1)c1nnc2n1CCC2` (configuration not stated), the cytotoxicity at 70.5 h is -2.92%. As to `Cc1ccc(CN2CC[C@H]3CO[C@H](CN4CCN(C)CC4)[C@H]3C2)o1`, the cytotoxicity at 70.5 h was -7.33%. Turning to `O=S(=O)(NC[C@]12COC[C@H]1CN(c1ncc(F)cn1)C2)C1CC1`, the cytotoxicity at 70.5 h is 19.1%.

As to `CC(C)CNC(=O)N1C[C@H]2CC[C@@]3(N=C(c4ccccc4)NC3=O)[C@H]2C1`, the cytotoxicity at 70.5 h was -0.00686%.

`CC(=O)N(Cc1ncc(C(C)C)o1)C1CCN(CCn2cccn2)C1` (configuration not stated): the cytotoxicity at 70.5 h is 4.58%. Turning to `CCN(CC)C(CNC(=O)c1ccc(S(=O)(=O)NC)cc1)c1ccco1` (configuration not stated), the cytotoxicity at 70.5 h came out at 0.103%. With `CCN(Cc1ccccc1)C1CCN(c2cc(C)nn2C)C1=O` (configuration not stated), the cytotoxicity at 70.5 h was -8.27%. On to `O=C(Nc1ncn(CC(=O)N2CCCCCC2)n1)C1CCCC1`, for which the cytotoxicity at 70.5 h is -7.56%. Consider `CN1CCCC1CNC(=O)CCOc1ccc(Br)cc1` (configuration not stated), for which the cytotoxicity at 70.5 h is 2.76%. As for `COc1ccccc1-n1nc(-c2ccco2)n(CC(=O)NC(C)C)c1=O`, the cytotoxicity at 70.5 h was -6.38%.

On to `O=C1OCCN1CCSc1nnnn1CC(F)(F)F`, for which the cytotoxicity at 70.5 h is -5.39%. Consider `CC(C)c1nc(C2CCCN2Cc2ccncc2Cl)no1` (configuration not stated), for which the cytotoxicity at 70.5 h was -11.2%. In the case of `CCOCCCNc1nc2c(s1)c(C)nn2C` it was -5.29%; in that of `Cc1ccc(CN(Cc2ccccn2)C2CC(C)(C)NC(C)(C)C2)s1`, -7.96%. As to `O=C(c1ccco1)N(CC(F)(F)F)C1CCCOC1` (configuration not stated), the cytotoxicity at 70.5 h was -2.62%.

As to `CCCn1ccnc1CN1CCCC1c1cccc(-n2ccnc2)n1` (configuration not stated), the cytotoxicity at 70.5 h stood at 11%.

For the compound `c1cc2occc2c(N2CCCC(c3nncn3C3CC3)C2)n1` (configuration not stated), the cytotoxicity at 70.5 h was found to be 17.6%.

With `c1ccc(CCN2CCN(c3ccc4nncn4n3)CC2)cc1`, the cytotoxicity at 70.5 h was -1.86%. In the case of `CC(=O)c1csc(-c2csc(Cn3ccc(=O)[nH]c3=O)n2)c1`, the cytotoxicity at 70.5 h is 4.03%.

For `COc1cccc2c1OCC(C(=O)NC1CCN(S(C)(=O)=O)CC1)C2` (configuration not stated), the cytotoxicity at 70.5 h was 14%. As to `CC(C)CCN1CC2(CCCN(C(=O)c3cscn3)C2)CCC1=O` (configuration not stated), the cytotoxicity at 70.5 h was -8.72%. The same measure for `N[C@H]1CN(Cc2cnc(N3CCCC3)nc2)C[C@@H]1C1CC1`: -5.36%; for `CCc1noc(C(C)N(C)Cc2cc(Br)ccc2OC)n1` (configuration not stated): -15.2%. In the case of `COCC1COCCC12CCN(C(=O)Cc1ccc(F)cc1)CC2` (configuration not stated) it was -16.1%; in that of `CCc1ccc(C2CC(=O)Nc3n[nH]cc32)o1` (configuration not stated), 0.796%; in that of `CN(Cc1ccoc1)C(=O)Cn1ncc(N(C)C)cc1=O`, 9.67%. With `COc1ccc(Oc2ncccc2NC(=O)N2CC[C@H](O)C2)cc1`, the cytotoxicity at 70.5 h is -1.8%. On to `COCCNC(=O)C[C@@H]1COC[C@H]2CN(Cc3cccnc3)C[C@@H]12`, for which the cytotoxicity at 70.5 h was -0.897%. For the compound `CCc1ccccc1C(=O)N1C[C@@H](CN2CCOCC2)[C@@H](CO)C1`, the cytotoxicity at 70.5 h was determined as 27.9%. The same measure for `Cc1noc(C2CCN(C(=O)C3CCCO3)CC2)n1` (configuration not stated): -9.25%; for `Cc1cs/c(=N\C(=O)Cn2nc(N3CCSCC3)ccc2=O)[nH]1`: -13.2%. Regarding `O=C(Cc1ccsc1)NCC1Cn2nnc(-c3ccoc3)c2CO1` (configuration not stated), the cytotoxicity at 70.5 h is -4.44%. Take `CC(=O)N1CC(c2ncn(C(C)C)n2)c2cc(C(=O)NC(C)C)ccc21` (configuration not stated): the cytotoxicity at 70.5 h was -4.9%. The same measure for `CCC(C)NC(=O)CN1CCC2(CC1)OCCO2` (configuration not stated): 3.04%.

`COC(=O)N1CC(C)=C(C)CN1C(=O)Nc1ccc(Cl)cc1`: the cytotoxicity at 70.5 h is 3.18%.

For the compound `CC(C)C(NC(=O)c1nc(N2CCOCC2)ncc1Cl)c1cccs1` (configuration not stated), the cytotoxicity at 70.5 h was -9.67%. With `Cn1cc(C(=O)NC[C@@H]2OC[C@H]3CN(Cc4ccco4)CC[C@H]32)cn1`, the cytotoxicity at 70.5 h was -7.09%. The same measure for `COC(=O)c1ccc(C(=O)NCc2nn(C)c3c2COCC3)cc1`: -4.89%. Regarding `COCCC(=O)N1CC2(CCN(Cc3ccncc3)CC2)C1`, the cytotoxicity at 70.5 h is -1.69%. `Cn1cc(C2CC(=O)NC23CCN(Cc2cccc(F)c2)CC3)cn1` (configuration not stated): the cytotoxicity at 70.5 h was -0.799%.

As to `COCCN1CC2(CCCN(c3ncc(Cl)cc3F)C2)CCC1=O` (configuration not stated), the cytotoxicity at 70.5 h worked out at 3.19%. For the compound `CNS(=O)(=O)CCCN1CCN(C(C)c2cccnc2)CC1` (configuration not stated), the cytotoxicity at 70.5 h was found to be 18.3%. As for `CC(C)(C)C(=O)N1C[C@H](c2ccsc2)[C@H]2CN(Cc3cccs3)CC[C@H]21`, the cytotoxicity at 70.5 h is 0.661%. For the compound `Cn1cnnc1CNC(=O)Nc1ccc(OC2CCC2)c(F)c1`, the cytotoxicity at 70.5 h was -4.19%.

As for `CC(C)N(C)C(=O)COc1ccc(-c2noc(C3CCCO3)n2)cc1` (configuration not stated), the cytotoxicity at 70.5 h came to 5.4%. In the case of `Cc1oc(-c2cccc(F)c2F)nc1CN(C)CCC(C)(C)O`, the cytotoxicity at 70.5 h was 26.5%. On to `CC(C)CNc1nnc(SC(C(=O)NCc2cccnc2)C(C)C)s1` (configuration not stated), for which the cytotoxicity at 70.5 h is -15.2%.

Consider `CNC(=O)CN1CCOC(c2ccccc2C(F)(F)F)C1` (configuration not stated), for which the cytotoxicity at 70.5 h worked out at 7.85%. Take `Cc1c(CN2CCC(C(=O)O)(n3ccnc3)CC2)oc2ccccc12`: the cytotoxicity at 70.5 h was -7.33%. With `Cc1nnc(CSc2ccc(C(F)(F)F)cn2)o1`, the cytotoxicity at 70.5 h was determined as 2.72%. On to `O=C1CCC2(CCN(Cc3nccs3)CC2)CN1CCCO`, for which the cytotoxicity at 70.5 h was -6.67%. Consider `Cc1cc(N2CCC(O)(CN(C)C(=O)CCN)CC2)c2cnccc2n1`, for which the cytotoxicity at 70.5 h was -5.17%.

For the compound `CCC(CNC(=O)c1nc(=O)[nH][nH]1)Oc1cccc(F)c1` (configuration not stated), the cytotoxicity at 70.5 h is 0.426%. With `COc1ccc(CNc2cc(-c3nc(C)no3)ccn2)c(OC)c1`, the cytotoxicity at 70.5 h was -1.3%. In the case of `Cc1ccc(C(=O)NS(=O)(=O)c2cc(Cl)ccc2Cl)c(=O)[nH]1` it was -1.03%; in that of `NC1(c2nc(C(F)(F)F)cc(=O)[nH]2)CCCCC1`, 0.93%.

As to `COC(=O)c1cccc(CNC(=O)c2cc(C(C)C)n(C)n2)c1`, the cytotoxicity at 70.5 h worked out at 27.4%. As for `COCCNC(=O)[C@H]1CC[C@@H]2[C@@H](CCN2S(C)(=O)=O)O1`, the cytotoxicity at 70.5 h is 11.5%.

`CS(=O)(=O)N1CCOCC2(CCN(C(=O)c3ccncc3)CC2)C1`: the cytotoxicity at 70.5 h is -6.51%. `CCc1ccc(C(=O)N2CCC(c3nncn3CC)CC2)s1`: the cytotoxicity at 70.5 h was -7.92%.

Take `Cc1cc(OCC(O)c2nc3c([nH]2)CC(C)(C)CNC3=O)ccc1Cl` (configuration not stated): the cytotoxicity at 70.5 h was -12.4%. Regarding `Cc1nc(CN2CCCC2Cn2cncn2)nc2ccccc12` (configuration not stated), the cytotoxicity at 70.5 h is -12.1%. Take `Cc1cncc(C2CCCN(C(=O)c3c[nH]c(=O)[nH]c3=O)C2)n1` (configuration not stated): the cytotoxicity at 70.5 h is -22.8%. As for `COc1ccc(C(=O)NCCCNc2ncccn2)c(OC)c1`, the cytotoxicity at 70.5 h is -7.46%. As for `CCc1c(C)[nH]c(C(C)(C)N)nc1=O`, the cytotoxicity at 70.5 h was -7.1%. Take `Cc1ccc(CCC(=O)N(C)CCN2CCOCC2)c(C)c1`: the cytotoxicity at 70.5 h is -0.456%. As for `N#Cc1cn(C2CC2)c(=O)n(CC(O)c2ccc(F)cc2)c1=O` (configuration not stated), the cytotoxicity at 70.5 h was -16.6%. In the case of `c1cc(N2CCCCC2)ccc1-c1noc(CN2CCOCC2)n1` it was -0.0335%; in that of `CN(C(=O)CCNC(=O)C1COc2ccccc21)c1ccccc1` (configuration not stated), -6.34%.

Turning to `O=C(c1cc(-c2cccs2)on1)N1CCCCC1Cn1cccn1` (configuration not stated), the cytotoxicity at 70.5 h was -8.41%. With `Nc1ncccc1CN1CCCn2nc(CCC(=O)NC3CC3)cc2C1`, the cytotoxicity at 70.5 h was -2.41%. Regarding `CCCN(C(=O)c1cnccn1)c1nc2c(s1)CCc1c-2cnn1C`, the cytotoxicity at 70.5 h was found to be 7.37%. As to `Cc1nc2ccc(Cl)cn2c1CN1CCN(S(=O)(=O)N2CCCC2)CC1`, the cytotoxicity at 70.5 h is -4.72%. Turning to `CN(C)c1ncc(CN2CCC(c3nnsc3S(C)(=O)=O)CC2)cn1`, the cytotoxicity at 70.5 h is -19.4%.
